Entries after “also recorded” stand apart in the source; their conditions may differ.
Experiments:
Assay type in all cases: cell-based
[1] = test system: insulin-producing cells differentiated from human iPS cells; test: C-peptide secretion of differentiated insulin-producing cells in response to stimulation (Human C-peptide ELISA); settings: 1 hr at 37° C. in buffer containing 2.5 mM glucose; (−)-Bay K8644 2 μM, tolbutamide 100 μM, carbachol 250 μM, IBMX 0.5 mM, KCl 30 mM; relative to 2.5 mM glucose
Description: The medium was changed once on day 7 of induction. […] The medium was changed every 3-4 days. After the culture, the cells were washed with a buffer containing 2.5 mM glucose (NaCl (116 mM), KCl (4.7 mM), KH2PO4 (1.18 mM), MgSO4 (1.18 mM), NaHCO3 (25 mM), CaCl2 (2.52 mM), HEPES (24 mM), 0.1% BSA), a buffer containing 2.5 mM glucose was added and the mixture was cultured at 37° C. for 2 hr. The supernatant was completely removed, and a buffer containing 2.5 mM glucose, a buffer containing 22.5 mM glucose, a buffer containing 2.5 mM glucose and 2 μM (−)-Bay K8644, a buffer containing 2.5 mM glucose and 100 μM tolbutamide, a buffer containing 2.5 mM glucose and 250 μM carbachol, a buffer containing 2.5 mM glucose and 0.5 mM IBMX, and a buffer containing 2.5 mM glucose and 30 mM KCl were respectively added. After culture at 37° C. for 1 hr, the culture supernatant was recovered, and the C-peptide contained in the culture supernatant was measured using Human C-peptide ELISA kit (Mercodia AB).

[2] = test system: progenitor cells of pancreatic hormone-producing cells induced from human iPS cells; test: immunofluorescent staining with anti-insulin antibody after step (4); settings: each added alone in step (4), day 10 to day 21; forskolin 10 μM, dibutyl cAMP 500 μM, IBMX 200 μM, ALK5 inhibitor II 5 μM, A-83-01 0.5 μM, SB431542 10 μM, TGFβRI kinase inhibitor VIII 2 μM, dexamethasone 10 μM, hydrocortisone 5 μM, betamethasone 2 μM, beclomethasone 1 μM
[3] = test system: endodermal cells induced from human iPS cells; settings: added simultaneously with dorsomorphin (1 μM) and retinoic acid (2 μM) day 3 to day 10; SB431542 5 μM, ALK5 inhibitor II 2 μM, A-83-01 0.2 μM, TGFβRI kinase inhibitor VIII 0.2 μM; vs dorsomorphin and retinoic acid alone
Description: The dorsomorphin is an inhibitor of AMP-activated protein kinase (AMPK), and an inhibitor of ALK2, ALK3 and ALK6 from among activin receptor-like kinases (ALK). In addition, SB431542 is an inhibitor of ALK4, ALK5 and ALK7 from among ALKs.
As a control, the medium was changed to one added with dorsomorphin and retinoic acid alone (Ctrl). […] After the culture, the expression level of NGN3, which is progenitor cells of pancreatic hormone-producing cells marker, was measured in the same manner as in Example 1.

Compound	C-peptide secretion level [1]	positive rate of insulin-expressing cells [2]	expression level of NGN3 [3]
COC(=O)C1=C(C)NC(C)=C([N+](=O)[O-])C1c1ccccc1C(F)(F)F (single isomer, unassigned; (-)) [(−)-Bay K8644]	increased	–	–
Cc1cccc(-c2nn(C(=S)Nc3ccccc3)cc2-c2ccnc3ccccc23)n1 [Example A-83-01, 3-[6-methyl-2-pyridinyl]-N-phenyl-4-[4-quinolinyl]-1H-pyrazole-1-carbothioamide]	–	remarkably increased; also recorded: induced differentiation into insulin-positive cells with high efficiency	increased remarkably
CC(C)Cn1c(=O)n(C)c(=O)c2[nH]cnc21 [IBMX, 3-isobutyl-1-methylxanthine]	increased	remarkably increased; also recorded: induced differentiation into insulin-positive cells with high efficiency	–
[Cl-].[K+] [KCl]	increased	–	–
NC(=O)c1ccc(-c2nc(-c3ccc4c(c3)OCO4)c(-c3ccccn3)[nH]2)cc1 [SB431542, 4-[4-(1,3-benzodioxol-5-yl)-5-(2-pyridinyl)-1H-imidazol-2-yl]-benzamide]	–	remarkably increased; also recorded: induced differentiation into insulin-positive cells with high efficiency	increased remarkably
Cc1cccc(-c2[nH]c(C(C)(C)C)nc2-c2ccc3nccnc3c2)n1 [TGFβRI kinase inhibitor VIII, 6-[2-tert-butyl-5-[6-methyl-pyridin-2-yl]-1H-imidazol-4-yl]-quinoxaline]	–	remarkably increased; also recorded: induced differentiation into insulin-positive cells with high efficiency	increased remarkably
C[C@H]1C[C@H]2[C@@H]3CCC4=CC(=O)C=C[C@]4(C)[C@@]3(Cl)[C@@H](O)C[C@]2(C)[C@@]1(O)C(=O)CO [beclomethasone]	–	remarkably increased; also recorded: induced differentiation into insulin-positive cells with high efficiency	–
C[N+](C)(C)CCOC(N)=O [carbachol]	increased	–	–
CCCC(=O)Nc1ncnc2c1ncn2[C@@H]1O[C@@H]2COP(=O)(O)O[C@H]2[C@H]1OC(=O)CCC [dibutyl cAMP]	–	remarkably increased; also recorded: induced differentiation into insulin-positive cells with high efficiency	–
C[C@]12CCC(=O)C=C1CC[C@@H]1[C@@H]2[C@@H](O)C[C@@]2(C)[C@H]1CC[C@]2(O)C(=O)CO [hydrocortisone]	–	remarkably increased; also recorded: induced differentiation into insulin-positive cells with high efficiency	–
CCCCNC(=O)NS(=O)(=O)c1ccc(C)cc1 [tolbutamide]	increased	–	–

Reference: patent US8932853B2, “Method for manufacturing pancreatic-hormone-producing cells” (Takeda Pharmaceutical Company Limited, priority 2009, dated 2015)
